Data reported in ChEMBL document CHEMBL6096730, “Unlocking the Therapeutic Potential of Natural Products for Alzheimer's Disease” (J Med Chem, 2025).

How the values were obtained:
[1] = target: Amyloid-beta precursor protein (Homo sapiens) (UniProt P05067); assay: Inhibition of self-mediated Amyloid beta (1 to 42) (unknown origin) aggregation at 20 uM measured every 5 mins by ThT fluorescence based assay relative to control
Acetylcholinesterase = Acetylcholinesterase (Homo sapiens, UniProt P22303); assay: Inhibition of human erythrocyte acetylcholinesterase using acetylthiocholine as substrate by Ellman's method
Chain of Acetylcholinesterase (P22303 whole entry): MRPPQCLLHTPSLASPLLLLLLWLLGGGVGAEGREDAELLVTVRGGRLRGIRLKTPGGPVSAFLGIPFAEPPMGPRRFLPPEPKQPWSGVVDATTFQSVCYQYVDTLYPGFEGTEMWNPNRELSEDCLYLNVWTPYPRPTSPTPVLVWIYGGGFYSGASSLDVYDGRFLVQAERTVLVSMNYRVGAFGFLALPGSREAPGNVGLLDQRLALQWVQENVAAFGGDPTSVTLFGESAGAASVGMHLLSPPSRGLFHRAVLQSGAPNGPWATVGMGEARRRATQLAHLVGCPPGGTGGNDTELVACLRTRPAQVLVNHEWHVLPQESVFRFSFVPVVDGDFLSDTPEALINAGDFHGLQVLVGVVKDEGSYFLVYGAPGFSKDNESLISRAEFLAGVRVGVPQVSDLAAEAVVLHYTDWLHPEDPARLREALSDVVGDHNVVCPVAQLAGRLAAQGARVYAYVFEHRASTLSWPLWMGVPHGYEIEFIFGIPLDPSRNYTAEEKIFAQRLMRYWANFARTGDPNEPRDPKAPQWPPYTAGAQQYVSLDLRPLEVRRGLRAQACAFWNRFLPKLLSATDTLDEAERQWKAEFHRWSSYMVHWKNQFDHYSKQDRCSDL

Chain of Amyloid-beta precursor protein (Homo sapiens) (P05067 whole entry): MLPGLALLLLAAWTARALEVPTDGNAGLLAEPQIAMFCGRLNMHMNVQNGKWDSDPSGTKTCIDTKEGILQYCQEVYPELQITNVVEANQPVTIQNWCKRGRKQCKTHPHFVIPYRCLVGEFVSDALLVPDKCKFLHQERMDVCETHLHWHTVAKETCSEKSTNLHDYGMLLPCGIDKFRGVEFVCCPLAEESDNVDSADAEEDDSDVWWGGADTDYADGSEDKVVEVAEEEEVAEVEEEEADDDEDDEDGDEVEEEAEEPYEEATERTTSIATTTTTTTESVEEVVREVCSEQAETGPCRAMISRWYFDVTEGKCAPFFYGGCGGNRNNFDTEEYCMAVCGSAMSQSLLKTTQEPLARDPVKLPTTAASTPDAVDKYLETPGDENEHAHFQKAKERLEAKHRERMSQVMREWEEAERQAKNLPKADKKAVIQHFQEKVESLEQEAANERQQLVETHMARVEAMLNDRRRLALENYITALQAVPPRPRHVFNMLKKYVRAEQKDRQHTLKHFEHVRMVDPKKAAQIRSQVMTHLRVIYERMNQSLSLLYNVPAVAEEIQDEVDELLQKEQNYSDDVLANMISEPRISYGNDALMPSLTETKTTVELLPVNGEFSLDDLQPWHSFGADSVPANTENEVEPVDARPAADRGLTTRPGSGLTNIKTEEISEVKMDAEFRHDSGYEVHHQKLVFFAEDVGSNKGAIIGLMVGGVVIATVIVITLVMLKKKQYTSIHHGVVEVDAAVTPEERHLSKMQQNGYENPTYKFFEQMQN

inhibition [1] [%]	Compound	IC50 (Acetylcholinesterase) [nM]
81	COc1cc([C@H](O)[C@H](C)Oc2ccc(CCCO)cc2O)ccc1O	
	COc1ccc([C@H]2O[C@@H](O)[C@H]3[C@@H]2C(=O)O[C@@H]3c2cc(OC)c3c(c2)OCO3)cc1OC	300
